In ChEMBL document CHEMBL1139605, “Novel ketal ligands for the glucocorticoid receptor: in vitro and in vivo activity” (Bioorg Med Chem Lett, 2005):

Columns and labels:
Mus musculus [1] = species on record: Mus musculus; assay: Effective concentration required for inhibition of interleukin-6 in mouse thioglycolate-elicited peritoneal exudate cell line using 69% radiolabeled Dexamethasone; assay type: functional
Glucocorticoid receptor [2] = biological target: T1, Glucocorticoid receptor (Homo sapiens, UniProt P04150); assay: Inhibition of human glucocorticoid receptor alpha isoform
T1 sequence (P04150 whole entry): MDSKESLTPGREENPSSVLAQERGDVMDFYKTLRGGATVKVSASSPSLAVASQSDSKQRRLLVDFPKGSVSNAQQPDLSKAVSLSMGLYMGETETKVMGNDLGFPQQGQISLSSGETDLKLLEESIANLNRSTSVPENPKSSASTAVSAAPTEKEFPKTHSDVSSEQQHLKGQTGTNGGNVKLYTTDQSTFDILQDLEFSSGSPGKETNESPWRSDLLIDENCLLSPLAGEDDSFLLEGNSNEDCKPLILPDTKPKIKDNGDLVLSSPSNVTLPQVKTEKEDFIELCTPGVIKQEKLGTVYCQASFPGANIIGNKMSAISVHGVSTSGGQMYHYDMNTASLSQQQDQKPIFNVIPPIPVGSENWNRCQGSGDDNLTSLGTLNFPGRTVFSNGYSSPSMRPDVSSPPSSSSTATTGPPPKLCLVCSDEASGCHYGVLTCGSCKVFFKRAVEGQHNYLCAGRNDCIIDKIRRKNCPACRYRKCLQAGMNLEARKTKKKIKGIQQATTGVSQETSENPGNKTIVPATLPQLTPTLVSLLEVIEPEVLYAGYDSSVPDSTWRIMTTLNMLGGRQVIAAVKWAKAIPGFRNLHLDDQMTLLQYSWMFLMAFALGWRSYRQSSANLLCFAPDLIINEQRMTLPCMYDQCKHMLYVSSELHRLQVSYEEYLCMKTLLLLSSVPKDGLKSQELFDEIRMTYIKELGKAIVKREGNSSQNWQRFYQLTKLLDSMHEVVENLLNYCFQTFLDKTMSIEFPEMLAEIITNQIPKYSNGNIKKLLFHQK

A549 [3] = assay: Effective concentration for inhibition of interleukin-6 in human A549 lung carcinoma cell line using 62% radiolabeled Dexamethasone; assay type: functional, cell-based
A549 [4] = assay: Effective concentration for inhibition of interleukin-6 in human A549 lung carcinoma cell line using 35% radiolabeled Dexamethasone; assay type: functional, cell-based
Mus musculus [5] = species on record: Mus musculus; assay: Effective concentration required for inhibition of interleukin-6 in mouse thioglycolate-elicited peritoneal exudate cell line using 52% radiolabeled Dexamethasone; assay type: functional
A549 [6] = assay: Effective concentration for inhibition of interleukin-6 in human A549 lung carcinoma cell line using […]% radiolabeled Dexamethasone; assay type: functional, cell-based
A549 [7] = assay: Effective concentration for inhibition of interleukin-6 in human A549 lung carcinoma cell line using 44% radiolabeled Dexamethasone; assay type: functional, cell-based
Glucocorticoid receptor [8] = biological target: T1, Glucocorticoid receptor; assay: Binding affinity for human glucocorticoid receptor
[9] = biological target: T2, Mineralocorticoid receptor (Rattus norvegicus, UniProt P22199); assay: Binding affinity for rat mineralocorticoid receptor
T2 sequence (P22199 whole entry): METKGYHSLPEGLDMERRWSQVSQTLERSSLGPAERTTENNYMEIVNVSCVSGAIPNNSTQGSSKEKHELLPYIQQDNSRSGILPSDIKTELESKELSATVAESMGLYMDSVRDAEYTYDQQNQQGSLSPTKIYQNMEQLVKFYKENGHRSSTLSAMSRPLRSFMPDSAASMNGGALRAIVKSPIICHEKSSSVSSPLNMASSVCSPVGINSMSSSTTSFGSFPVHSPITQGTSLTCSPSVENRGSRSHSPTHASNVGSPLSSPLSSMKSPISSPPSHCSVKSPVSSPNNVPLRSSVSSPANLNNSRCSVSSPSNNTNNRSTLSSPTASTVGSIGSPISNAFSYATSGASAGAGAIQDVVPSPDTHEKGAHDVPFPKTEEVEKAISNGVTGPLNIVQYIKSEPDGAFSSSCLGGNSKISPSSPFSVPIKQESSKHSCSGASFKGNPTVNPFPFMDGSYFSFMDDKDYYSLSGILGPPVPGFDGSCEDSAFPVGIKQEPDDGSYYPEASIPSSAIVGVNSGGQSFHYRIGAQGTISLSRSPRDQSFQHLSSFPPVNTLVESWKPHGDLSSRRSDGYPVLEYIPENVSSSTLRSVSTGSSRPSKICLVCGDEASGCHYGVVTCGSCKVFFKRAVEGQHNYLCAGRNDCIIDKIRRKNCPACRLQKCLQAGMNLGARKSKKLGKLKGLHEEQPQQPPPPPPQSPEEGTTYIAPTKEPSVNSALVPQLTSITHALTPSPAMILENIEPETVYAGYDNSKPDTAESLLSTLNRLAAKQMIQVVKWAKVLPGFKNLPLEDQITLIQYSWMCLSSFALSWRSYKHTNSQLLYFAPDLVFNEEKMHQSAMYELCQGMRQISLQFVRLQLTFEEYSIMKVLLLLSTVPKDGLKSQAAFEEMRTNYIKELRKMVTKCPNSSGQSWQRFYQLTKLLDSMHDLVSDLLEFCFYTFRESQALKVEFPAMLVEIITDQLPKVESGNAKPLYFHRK

Mus musculus [10] = species on record: Mus musculus; assay: Effective concentration required for interleukin-6 transrepression in peritoneal exudate cells of C57B1/6 mouse using 56% Dexamethasone; assay type: functional, cell-based
A549 [11] = assay: Effective concentration for inhibition of interleukin-6 in human A549 lung carcinoma cell line using 58% radiolabeled Dexamethasone; assay type: functional, cell-based
Estrogen receptor beta = Estrogen receptor beta (Homo sapiens, UniProt Q92731); assay: Binding affinity for human estrogen receptor beta
Chain of Estrogen receptor beta (Q92731 whole entry): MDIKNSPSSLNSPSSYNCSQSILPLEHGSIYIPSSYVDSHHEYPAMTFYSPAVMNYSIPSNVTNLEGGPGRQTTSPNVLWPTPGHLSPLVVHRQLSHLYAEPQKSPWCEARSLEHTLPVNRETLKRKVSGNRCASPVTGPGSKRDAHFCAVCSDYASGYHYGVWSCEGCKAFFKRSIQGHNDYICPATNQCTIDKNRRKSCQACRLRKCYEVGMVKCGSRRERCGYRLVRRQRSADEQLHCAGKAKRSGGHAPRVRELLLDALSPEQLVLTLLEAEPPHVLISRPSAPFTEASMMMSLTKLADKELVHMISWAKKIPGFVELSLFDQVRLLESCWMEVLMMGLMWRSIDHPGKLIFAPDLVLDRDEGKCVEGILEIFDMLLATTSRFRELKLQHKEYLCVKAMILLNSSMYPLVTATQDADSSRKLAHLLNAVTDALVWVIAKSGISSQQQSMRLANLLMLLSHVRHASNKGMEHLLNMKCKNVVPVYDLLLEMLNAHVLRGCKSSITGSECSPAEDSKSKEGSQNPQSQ

Estrogen receptor = biological target: T3, Estrogen receptor (Homo sapiens, UniProt P03372); assay: Binding affinity for human estrogen receptor alpha
T3 sequence (P03372 whole entry): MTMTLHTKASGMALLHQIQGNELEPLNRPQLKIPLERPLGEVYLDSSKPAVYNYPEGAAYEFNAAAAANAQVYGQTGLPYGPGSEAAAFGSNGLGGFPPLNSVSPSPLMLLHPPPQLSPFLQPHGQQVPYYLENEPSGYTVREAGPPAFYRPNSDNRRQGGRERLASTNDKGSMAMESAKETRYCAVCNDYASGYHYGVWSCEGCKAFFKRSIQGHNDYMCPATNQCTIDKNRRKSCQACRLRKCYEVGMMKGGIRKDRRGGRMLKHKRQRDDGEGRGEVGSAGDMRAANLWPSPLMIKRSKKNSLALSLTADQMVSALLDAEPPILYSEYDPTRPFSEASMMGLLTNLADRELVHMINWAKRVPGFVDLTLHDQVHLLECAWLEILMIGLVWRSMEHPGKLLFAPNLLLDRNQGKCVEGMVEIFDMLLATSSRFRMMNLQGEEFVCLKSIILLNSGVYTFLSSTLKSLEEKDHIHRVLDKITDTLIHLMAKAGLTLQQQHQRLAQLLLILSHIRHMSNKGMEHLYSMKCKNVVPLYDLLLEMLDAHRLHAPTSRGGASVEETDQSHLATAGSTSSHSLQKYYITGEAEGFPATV

[12] = Bioavailability in mouse (dose 10 mg/kg p.o.); assay type: ADME, organism-based; conditions: in vivo, po
Mus musculus [13] = species on record: Mus musculus; assay: Effective concentration required for inhibition of interleukin-6 in mouse thioglycolate-elicited peritoneal exudate cell line using 56% radiolabeled Dexamethasone; assay type: functional
Mus musculus [14] = assay: Inhibition of LPS induced TNF-alpha secretion in mouse at an oral dose of 30 mg/kg relative to that produced by Dexamethasone at a dose of 0.3 mg/kg; assay type: functional
[15] = Half life time in mouse at 2 mg/kg i.v. administration; assay type: ADME, organism-based; design: dose 2 mg/kg, route intravenous; conditions: in vivo, iv
Progesterone receptor = biological target: T4, Progesterone receptor (Homo sapiens, UniProt P06401); assay: Binding affinity for human progesterone receptor
T4 sequence (P06401 whole entry): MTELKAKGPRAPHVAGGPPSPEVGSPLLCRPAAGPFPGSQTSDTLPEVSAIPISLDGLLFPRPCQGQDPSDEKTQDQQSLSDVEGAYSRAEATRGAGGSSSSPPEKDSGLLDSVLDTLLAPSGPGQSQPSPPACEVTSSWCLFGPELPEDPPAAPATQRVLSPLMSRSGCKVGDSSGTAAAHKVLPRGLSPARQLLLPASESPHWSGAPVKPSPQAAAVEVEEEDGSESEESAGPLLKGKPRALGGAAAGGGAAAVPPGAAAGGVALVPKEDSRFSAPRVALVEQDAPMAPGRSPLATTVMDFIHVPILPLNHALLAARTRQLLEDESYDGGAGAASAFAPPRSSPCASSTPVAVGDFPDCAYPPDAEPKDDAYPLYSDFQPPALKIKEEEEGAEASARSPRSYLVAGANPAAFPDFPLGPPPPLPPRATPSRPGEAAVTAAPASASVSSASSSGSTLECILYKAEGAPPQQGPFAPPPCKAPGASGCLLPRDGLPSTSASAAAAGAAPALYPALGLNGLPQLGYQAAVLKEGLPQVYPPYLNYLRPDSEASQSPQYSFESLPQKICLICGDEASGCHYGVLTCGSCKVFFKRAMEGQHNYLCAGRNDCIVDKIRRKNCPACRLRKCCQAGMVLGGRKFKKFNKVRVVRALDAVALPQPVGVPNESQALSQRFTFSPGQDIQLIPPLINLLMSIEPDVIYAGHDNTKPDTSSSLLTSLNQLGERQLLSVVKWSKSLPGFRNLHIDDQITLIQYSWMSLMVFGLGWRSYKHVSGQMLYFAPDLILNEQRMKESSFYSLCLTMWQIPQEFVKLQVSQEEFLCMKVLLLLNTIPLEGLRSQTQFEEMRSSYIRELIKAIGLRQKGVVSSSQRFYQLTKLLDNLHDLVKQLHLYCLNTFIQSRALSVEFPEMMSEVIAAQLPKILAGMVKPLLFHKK

[16] = Clearance data in mouse at 2 mg/kg i.v. administration; assay type: ADME, organism-based; design: dose 2 mg/kg, route intravenous; conditions: in vivo, iv
[17] = Volume of distribution in mouse at 2 mg/kg i.v. administration; assay type: ADME, organism-based; design: dose 2 mg/kg, route intravenous; conditions: in vivo, iv, read-out: Volume of distribution
A549 [18] = assay: Effective concentration for inhibition of interleukin-6 in human A549 lung carcinoma cell line using 59% radiolabeled Dexamethasone; assay type: functional, cell-based
Mus musculus [19] = species on record: Mus musculus; assay: Effective concentration required for inhibition of interleukin-6 in mouse thioglycolate-elicited peritoneal exudate cell line using 77% radiolabeled Dexamethasone; assay type: functional

COC[C@H]1OC2(CCC3=Cc4c(cnn4-c4ccc(F)cc4)C[C@@]32C)O[C@@H]1COC
EC50 (Mus musculus [1]): 10 nM | IC50 (Glucocorticoid receptor [2]): 26 nM | EC50 (A549 [3]): 8.3 nM

C[C@H]1CCO[C@]2(CCC3=Cc4c(cnn4-c4ccc(F)cc4)C[C@@]32C)O1
EC50 (A549 [4]): 0.53 nM | IC50 (Glucocorticoid receptor [2]): 21 nM

C=C[C@@H]1CO[C@]2(CCC3=Cc4c(cnn4-c4ccc(F)cc4)C[C@@]32C)O1
IC50 (Glucocorticoid receptor [2]): 5.8 nM | EC50 (Mus musculus [5]): 168 nM | EC50 (A549 [6]): 9 nM

C[C@@H]1CC(C)(C)O[C@]2(CCC3=Cc4c(cnn4-c4ccc(F)cc4)C[C@@]32C)O1
EC50 (A549 [7]): 12 nM | IC50 (Glucocorticoid receptor [2]): 2.2 nM

C=C[C@H]1OC2(CCC3=Cc4c(cnn4-c4ccc(F)cc4)C[C@@]32C)O[C@@H]1C=C
IC50 (Glucocorticoid receptor [8]): 8 nM | IC50 [9]: > 10000 nM | EC50 (Mus musculus [10]): 61 nM | EC50 (A549 [11]): 2.6 nM | IC50 (Estrogen receptor beta): > 10000 nM | IC50 (Estrogen receptor): > 10000 nM | IC50 (Glucocorticoid receptor [2]): 8 nM | bioavailability [12]: 14.3% | EC50 (Mus musculus [13]): 61 nM | Inhibition (Mus musculus [14]): 96.8% | half-life [15]: 2.3 h | IC50 (Progesterone receptor): > 1000 nM | clearance [16]: 114 mL/min/kg | Vd [17]: 15.3 L/kg

C[C@@H]1CC(C)(C)O[C@@]2(CCC3=Cc4c(cnn4-c4ccc(F)cc4)C[C@@]32C)O1
EC50 (A549 [18]): 25 nM | EC50 (Mus musculus [19]): 18 nM | IC50 (Glucocorticoid receptor [2]): 2.1 nM
